Measured values from PMC4117768, “Conjugation with polyamines enhances the antibacterial and anticancer activity of chloramphenicol” (Nucleic Acids Research, 2014).
Marks after values point to notes of the source that are not given here.

Test system: central loop of Domain V of 23S rRNA, E. coli ribosomes
Assay: Time-resolved footprinting of PA–CAM conjugates bound to ribosomes (DMS, kethoxal, CMCT probing, primer extension)
Assay type: binding
Details: conjugate at 50 × Ki, 25°C, ratio to control lane R
Method: Complexes RI and R*I were then probed at 37°C for 10 min with DMS, kethoxal or CMCT, as described previously ([30]). The modified sites in 23S rRNA were then analyzed by primer extension with reverse transcriptase, according to Moazed et al. ([30]). […] Extension products were run on 6% polyacrylamide/7M urea gels. Identification of the modified nucleotides, quantitative scanning of the gels and normalization of the band intensities were made as previously described ([4]). The values indicated in Table 2 denote the ratio between the normalized intensity of a band of interest and the normalized intensity of the corresponding band in the control lane (ribosomes non-treated with drugs).

NCCCN(CCCCN(Cc1ccccc1)Cc1ccccc1)C(=O)CCC(=O)N[C@H](CO)[C@H](O)c1ccc([N+](=O)[O-])cc1 [Compound 4] was tested, and the “Relative reactivity of nucleoside A2058” value (R*I binding state (3 min)) was 1.25 ± 0.09^b,c, the “Relative reactivity of nucleoside A2059” value (R*I binding state (3 min)) was 0.60 ± 0.03^b,c and the “Relative reactivity of nucleoside A2062” value (R*I binding state (3 min)) was 0.52 ± 0.02^b,c. The “Relative reactivity of nucleoside A2451” value (R*I binding state (3 min)) was 0.53 ± 0.05^b, the “Relative reactivity of nucleoside A2602” value (R*I binding state (3 min)) was 0.88 ± 0.08 and the “Relative reactivity of nucleoside G2505” value (R*I binding state (3 min)) was 0.35 ± 0.02^b,c. The “Relative reactivity of nucleoside U2506” value (R*I binding state (3 min)) was 0.65 ± 0.04^b, the “Relative reactivity of nucleoside U2585” value (R*I binding state (3 min)) was 0.45 ± 0.02^b,c and the “Relative reactivity of nucleoside U2609” value (R*I binding state (3 min)) was 1.00 ± 0.07. For the same compound, the “Relative reactivity of nucleoside A2058” value (RI binding state (2 s)) was 1.00 ± 0.05, the “Relative reactivity of nucleoside A2059” value (RI binding state (2 s)) was 1.00 ± 0.06 and the “Relative reactivity of nucleoside A2062” value (RI binding state (2 s)) was 1.00 ± 0.05. The “Relative reactivity of nucleoside A2451” value (RI binding state (2 s)) was 0.48 ± 0.02^b, the “Relative reactivity of nucleoside A2602” value (RI binding state (2 s)) was 1.00 ± 0.10 and the “Relative reactivity of nucleoside G2505” value (RI binding state (2 s)) was 0.65 ± 0.05^b. The “Relative reactivity of nucleoside U2506” value (RI binding state (2 s)) was 0.70 ± 0.05^b and the “Relative reactivity of nucleoside U2609” value (RI binding state (2 s)) was 1.00 ± 0.09.
